Patent US9308210B2, “Method for modulating canonical Wnt pathway using folate and inositol” (University of South Florida, priority 2009, dated 2016)
Counter-ions that a name gives are not always drawn.

Experiments:
[1] = test system: chick embryos; test: Early embryonic chick culture: heart development (MF20) after HCy, Li or Wnt3A exposure, FA/inositol rescue; format: in vivo, chick (Gallus gallus); conditions: for % Normal Hearts / Abnormal (number of embryos) / Normal (number of embryos): HCy 50 μM, FA 10 μM
Procedure: Pathogen-free White Leghorn chick (Gallus gallus; Charles River, Mass.) and quail (Coturnix coturnix japonica; Strickland Farms, Ga.) embryos were used to analyze the effects of HCy on early embryogenesis. The early processes of heart development are well conserved among vertebrates and the avian model allows for more precise timing of exposure in early embryos. The incubation methodology using agarose-albumin has been described previously (Darnell and Schoenwolf, 2000). Briefly, the experimental paradigm involved exposing specific early stages of chick embryos, at HH stages 4 to 7 (Hamburger and Hamilton, 1951), to different concentrations of HCy (L-homocysteine thiolactone hydrochloride, Sigma) made up in physiological saline. Final concentrations of HCy included 30 μM, 50 μM, 75 μM and 100 μM. The minimal teratogenic dose was determined empirically to be 50 μM. This fit within the concentration range of 30 μM to 300 μM used by others that induced heart defects at later stages of development (Boot et al., 2004). Control embryos were incubated using the vehicle, physiological saline, in the agarose-albumin medium. Control and experimental cultures were incubated on the agarose-albumin plates for either 8 or 24 hours.
Carrier-free, recombinant mouse Wnt3A was purchased from R&D Systems (Minneapolis, Minn.). Wnt3A concentrations were empirically tested to find those that would induce cardiac defects but maintain embryonic viability. Wnt3A was tested at concentrations of 2 ng, 10 ng, 20 ng, 50 ng and 100 ng per ml. Concentrations of 2 ng/ml and 10 ng/ml were both effective in inducing cardiac defects. Both Wnt3A concentrations were used in the FA rescue experiments, as described. For the FA rescue experiments, folate (folic acid, Sigma-Aldrich) was added at a concentration of 2 μg, 5 μg or 10 μg per ml. […] For the experiments using inositol (myo-inositol, Sigma) supplementation, a concentration of 50 mg/ml was used.
The main embryonic defects related to the timing of embryonic exposure; the regions that were primarily affected related to an anterior-to posterior (AP) wave of development along this embryonic axis. The exposure effects ranged from early effects (e.g. no cardiac tissue, heart development occurring anterior to neural tissue, cardiabifida) to later effects, such as wide hearts and left looping (Table 1). The cardiac phenotypes observed with early HCy exposure were similar, although not identical, to those obtained from previous studies of Li exposure on avian heart development (Manisastry et al., 2006). The Wnt/β-catenin modulated genes Hex and Isl1 in the chick embryo also were similarly repressed with HCy, as with Li in the chick cardiogenic region. […] Investigation of regulatory gene activity in chick embryos indicates Li, HCy and Wnt3A suppress Wnt-modulated genes Hex and Islet-1 in the heart fields.
To define the effective dose of Wnt3A needed to induce cardiac dysmorphogenesis, Wnt3A was tested at concentrations of 2 ng, 10 ng, 20 ng, 50 ng, and 100 ng per ml. The minimal effective doses of Wnt3A that induced cardiac and neural anomalies were 2 ng/ml and 10 ng/ml, respectively. Using these concentrations, the inventors analyzed whether FA supplementation of media at 10^3-fold higher concentrations, that is 2 μg/ml or 10 μg/ml, would provide protection against the augmentation of canonical Wnt3A signaling.

[2] = test system: Acadm and Acadl gene expression; test: RT-PCR of Acadm and Acadl in E7.5 embryos and E15.5 hearts; format: in vivo, mouse; conditions: for Acadm expression: E15.5 hearts, versus control hearts
Source text: The gene expression data were validated by RT-PCR in mouse embryos at both E 7.5 (a half day after exposure) and at E15.5 and by in situ hybridization for tissue localization analyses. The inventors chose E 7.5 to determine early gestational changes in gene expression and to define whether these expression changes were maintained during pregnancy to E 15.5. Digoxigenin labeled probes and alkaline phosphatase secondary antibody detection for in situ hybridization were used (Roche, Inc., Indianapolis, Ind.).

[3] = seven years after FA fortification; Quebec, Canada; cited from earlier work
[4] = test system: E15.5 mouse hearts; test: Histology of HCy-exposed E15.5 mouse hearts; format: in vivo; conditions: single HCy exposure on E6.75
Procedure: Li- and HCy-exposed embryos, and control NaCl-exposed embryos, were fixed in 4% paraformaldehyde in phosphate buffered saline (PBS, pH 7.4) and paraffin sectioned. Sections were stained with hematoxylin-eosin, and some were stained with Toluidine Blue, and examined. Cardiac regions were analyzed for the presence of any obvious malformations using a Nikon SMZ1500 fluorescent stereomicroscope, and digitized images were obtained using a Nikon DS-L2 camera unit.
Malformed and small aortic valves (AoV in H) and pulmonary valves (PV in I) were apparent. […] This was exemplified by a post-stenotic dilatation of the pulmonary artery, apparent in FIG. 12L. […] In summary, in addition to the general cardiac hypertrophy, the viable cardiac anomalies that were observed on E15.5 following a single HCy exposure on E6.75 related primarily to derivatives of the SHF, that is the outflow, the right ventricle, and the tricuspid and SL valves.

[5] = HH stage 3 +/4, Li 50 μM, inositol 280 mM
[6] = 50 μM HCy, early embryonic chick model
[7] = White Leghorn, chick, in vivo, 50 μM

In the case of `Nc1nc2ncc(CNc3ccc(C(=O)N[C@@H](CCC(=O)O)C(=O)O)cc3)nc2c(=O)[nH]1` [FA, folic acid], the “% Normal Hearts” value [1, 5] was 55%, the “Abnormal (number of embryos)” value [1, 5] was 5 and the “Normal (number of embryos)” value [1, 5] was 6. For the same compound, the “% Normal Hearts” value ([1]; HH stage 3 +/4, Li 50 μM, inositol 280 mM, listed as FA only) was 55%, the “heart development (MF20)” value ([1]; in vivo) was “normal heart development” and the Acadm expression [2] was “returned the expression close to control levels”. For the same compound, the “yearly decrease in the prevalence of severe heart defects” value [3] was 6%.

With `N[C@H]1CCSC1=O` [HCy, L-homocysteine thiolactone hydrochloride] the “Dead, Frequency” value [1, 6] was 6, the “Dead, Percent” value [1, 6] was 5.6% and the “Abnormal (number of embryos)” value [1, 5] was 100. For the same compound, the “Normal (number of embryos)” value [1, 5] was 28, the “% Normal Hearts” value ([1]; HH stage 3 +/4, Li 50 μM, inositol 280 mM, hydrochloride) was 22% and the “Abnormal (number of embryos)” value ([1]; HH stage 5) was 50. For the same compound, the “Normal (number of embryos)” value ([1]; HH stage 5) was 24, the “% Normal Hearts” value ([1]; HH stage 5, hydrochloride) was 32% and the minimal teratogenic dose ([1]; White Leghorn, chick, in vivo) was 50 µM. For the same compound, the “Cardiabificla, Frequency” value [1, 7] was 11, the “Cardiabificla, Percent” value [1, 7] was 10.2% and the “Delayed development, Frequency” value [1, 7] was 2. The “Delayed development, Percent” value [1, 7] was 1.9%, the “Heart above head, Frequency” value [1, 7] was 18 and the “Heart above head, Percent” value [1, 7] was 16.7%. The “Heart close midline, Frequency” value [1, 7] was 15, the “Heart close midline, Percent” value [1, 7] was 13.9% and the “Left looping, Frequency” value [1, 7] was 11. For the same compound, the “Left looping, Percent” value [1, 7] was 10.2%, the “Tubular heart, Frequency” value [1, 7] was 3 and the “Tubular heart, Percent” value [1, 7] was 2.8%. For the same compound, the “Very abnormal (or no hearts), Frequency” value [1, 7] was 18, the “Very abnormal (or no hearts), Percent” value [1, 7] was 16.7% and the “Wide heart, Frequency” value [1, 7] was 24. For the same compound, the “Wide heart, Percent” value [1, 7] was 22.2%, the “development after exposure at HH stages 6 and 7” value ([1]; in vivo) was “normal development” and the “cardiac pathology on E15.5” value [4] was “right and left side cardiac hypertrophy”. For the same compound, the Acadm/Acadl gene expression ([2]; E7.5, versus control embryos, FA from morning after conception) was “slightly down-regulated” and the Acadm expression [2] was “upregulation”.
